The results in this text go back to patent US20050049186A1, “Peptides mimicking the biological activity of steroid hormones and their uses” (priority 2000, published 2005).

Assay [1] concerns anti-progesterone mAb clone 1E11. Kind of assay: RIA: competition with [3H]-progesterone for anti-progesterone clone 1E11. Also noted: species or system mouse. Conditions: FIG. 4, read-out: IC50, competition with [3H]-progesterone for binding sites of anti-progesterone clone 1E11. The source says:
In order to confirm the specific binding activity of the peptides 3 and 4 for the anti-progesterone mnAb clone 1E11, a RIA system where the peptides competed with [^3H]-progesterone for the binding sites of clone 1E11 was used. […]

Assay [2] deals with creatine kinase (CK) specific activity in rat tissues. Kind of assay: Stimulation of creatine kinase specific activity in rat tissues in vivo. The procedure: The control goups received 0.5 ml saline containing 0.5% ethanol or tris-saline alone. The various organs were assayed for CK activity four hours after treatment.
Setting [3] is: immature female rats, four hours after treatment, estradiol 5 μg/rat, peptides and raloxifene 0.5 mg/rat, mean ± S.E.M., n=15.

Peptide text beside a SMILES is read from it. Bounds are passed on as bounds.

As a reminder, the IC50 is the concentration that inhibits the measured activity by half. Take `CC[C@H](C)[C@H](NC(=O)[C@@H](NC(=O)[C@H](CO)NC(=O)[C@H](CC(C)C)NC(=O)[C@H](Cc1ccccc1)NC(=O)[C@H](CCC(N)=O)NC(=O)[C@H](C)NC(=O)[C@H](CCC(N)=O)NC(=O)[C@H](CC(=O)O)NC(=O)[C@H](Cc1c[nH]c2ccccc12)NC(=O)[C@@H]1CCCN1C(=O)[C@H](Cc1c[nH]cn1)NC(=O)[C@H](CC(N)=O)NC(=O)[C@@H](N)C(C)C)[C@@H](C)O)C(=O)O` [Peptide 3] (H-VNHPWDQAQFLSTI-OH): the IC50 in assay [1] is approximately 100 µM.
In the case of `C[C@]12CC[C@@H]3c4ccc(O)cc4CC[C@H]3[C@@H]1CC[C@@H]2O` [Estradiol, estradiol], in assay [2] (setting [3]), the “Creatine kinase specific activity (Experimental/control), Aorta” value amounted to 2.0 ± 0.18; the “Creatine kinase specific activity (Experimental/control), Diapysis” value was determined as 1.87 ± 0.1; the “Creatine kinase specific activity (Experimental/control), Epipysis” value is listed as 1.37 ± 0.07; the “Creatine kinase specific activity (Experimental/control), Uterus” value is reported as 1.37 ± 0.07.
In the case of `O=C(c1ccc(OCCN2CCCCC2)cc1)c1c(-c2ccc(O)cc2)sc2cc(O)ccc12` [Raloxifene, raloxifene], in assay [2] (setting [3]), the “Creatine kinase specific activity (Experimental/control), Aorta” value is reported as 1.63 ± 0.04; the “Creatine kinase specific activity (Experimental/control), Diapysis” value is given as 1.75 ± 0.13; the “Creatine kinase specific activity (Experimental/control), Epipysis” value was found to be 1.41 ± 0.05; the “Creatine kinase specific activity (Experimental/control), LV (left ventricle)” value is given as 1.34 ± 0.11. Moreover, the “Creatine kinase specific activity (Experimental/control), Uterus” value in assay [2] (setting [3]) worked out at 0.99 ± 0.17. Also, the “blocking of the increase in CK activity caused by estradiol or peptides 1 and 2” value in assay [2] (rats treated with combination with raloxifene) is “blocked in all the tissues with the exception of the epiphysis”.
As for `CC(=O)[C@H]1CC[C@H]2[C@@H]3CCC4=CC(=O)CC[C@]4(C)[C@H]3CC[C@]12C` [Progesterone, progesterone, reference compound], the concentration for half-maximal inhibition (IC50) in assay [1] is less than 0.001 µM.
Still for that read-out and setting: with `CC(C)[C@H](NC(=O)[C@H](Cc1c[nH]cn1)NC(=O)[C@@H]1CSSC[C@H](NC(=O)[C@H](Cc2ccccc2)NC(=O)[C@@H]2CCCN2C(=O)[C@H](CC(N)=O)NC(=O)[C@@H](N)CO)C(=O)N[C@@H](CCC(N)=O)C(=O)N[C@@H]([C@@H](C)O)C(=O)N[C@@H](CC(=O)O)C(=O)NCC(=O)N[C@@H](CC(=O)O)C(=O)N1)C(=O)N[C@@H](Cc1c[nH]cn1)C(=O)N[C@H](C(=O)O)[C@@H](C)O` [Peptide 4] (HELM PEPTIDE1{S.N.P.F.C.Q.T.D.G.D.C.H.V.H.T}$PEPTIDE1,PEPTIDE1,5:R3-11:R3$$$V2.0; N-terminus and C-terminus assumed; bridges inferred) the figure was approximately 5 µM.
